# According to ChEMBL document CHEMBL5500384, “New synergistic benzoquinone scaffolds as inhibitors of mycobacterial cytochrome bc1 complex to treat multi-drug resistant tuberculosis” (Eur J Med Chem, 2024):
# How the values were obtained:
# [1] = Acute toxicity in Albino mouse assessed as change in serum urea level at 50 to 2000 mg/kg, po measured after 14 days (reference value: 46 mg/dl); format: organism-based; settings: in vivo, 336 h, dose 50-2000 mg/kg, time 14 day
# [2] = Pulmonary toxicity in Albino mouse assessed as change in alveolar sacs at 50 to 2000 mg/kg, po measured after 14 days; format: organism-based; settings: in vivo, 336 h, dose 50-2000 mg/kg, time 14 day
# [3] = Acute toxicity in Albino mouse assessed as change in RBC count measured per million cells at 50 to 2000 mg/kg, po measured after 14 days (reference value: 9.15 microL); format: organism-based, Erythrocyte; settings: in vivo, 336 h, dose 50-2000 mg/kg, time 14 day
# [4] = test system: Mycobacterium tuberculosis; test: Antitubercular activity against Mycobacterium tuberculosis H37Rv incubated for 5 days by microtiter plate method; format: functional; settings: 120 h, time 5 day
# [5] = Hepatotoxicity in Albino mouse assessed as change in portal vein at 50 to 2000 mg/kg, po measured after 14 days; format: toxicity, organism-based; settings: in vivo, 336 h, dose 50-2000 mg/kg, time 14 day
# [6] = Cytotoxicity against african green monkey Vero cells assessed as cell viability at 12.5 ug/ml by MTT assay; format: toxicity, cell-based; settings: chlorocebus sabaeus, at 12.5 µg/mL, read-out: Activity
# [7] = Cytotoxicity against african green monkey Vero cells assessed as cell viability at 25 ug/ml by MTT assay; format: toxicity, cell-based; settings: chlorocebus sabaeus, at 25 µg/mL, read-out: Activity
# [8] = Hepatotoxicity in Albino mouse assessed as change in portal tracks at 50 to 2000 mg/kg, po measured after 14 days; format: toxicity, organism-based; settings: in vivo, 336 h, dose 50-2000 mg/kg, time 14 day
# [9] = Acute toxicity in Albino mouse assessed as change in LDH level at 50 to 2000 mg/kg, po measured after 14 days (reference value: 1052 IU/L); format: organism-based; settings: in vivo, 336 h, dose 50-2000 mg/kg, time 14 day
# [10] = Acute toxicity in Albino mouse assessed as change in SGOT count at 50 to 2000 mg/kg, po measured after 14 days (reference value: 42 IU/L); format: organism-based; settings: in vivo, 336 h, dose 50-2000 mg/kg, time 14 day
# [11] = Renal toxicity in Albino mouse assessed as structural absorbability abnormalities at 50 to 2000 mg/kg, po measured after 14 days; format: organism-based; settings: in vivo, 336 h, dose 50-2000 mg/kg, time 14 day
# [12] = Renal toxicity in Albino mouse assessed as change in renal tubules at 50 to 2000 mg/kg, po measured after 14 days; format: organism-based; settings: in vivo, 336 h, dose 50-2000 mg/kg, time 14 day
# [13] = Hepatotoxicity in Albino mouse assessed as change in central vein at 50 to 2000 mg/kg, po measured after 14 days; format: toxicity, organism-based; settings: in vivo, 336 h, dose 50-2000 mg/kg, time 14 day
# [14] = Cytotoxicity against african green monkey Vero cells assessed as cell viability at 100 ug/ml by MTT assay; format: toxicity, cell-based; settings: chlorocebus sabaeus, at 100 µg/mL, read-out: Activity
# [15] = Renal toxicity in Albino mouse assessed as change in tubular capillaries at 50 to 2000 mg/kg, po measured after 14 days; format: organism-based; settings: in vivo, 336 h, dose 50-2000 mg/kg, time 14 day
# [16] = Acute toxicity in Albino mouse assessed as change in lymphocytes at 50 to 2000 mg/kg, po measured after 14 days (reference value: 21%); format: organism-based; settings: in vivo, 336 h, dose 50-2000 mg/kg, time 14 day
# [17] = Acute toxicity in Albino mouse assessed as change in ALP level at 50 to 2000 mg/kg, po measured after 14 days (reference value: 28 IU/L); format: organism-based; settings: in vivo, 336 h, dose 50-2000 mg/kg, time 14 day
# [18] = Acute toxicity in Albino mouse assessed as mortality at 300 mg/kg, po after 5 to 8 hrs; format: organism-based; settings: in vivo, time 5-8 hrs
# [19] = Acute toxicity in Albino mouse assessed as change in monocytes at 50 to 2000 mg/kg, po measured after 14 days (reference value: 1%); format: organism-based; settings: in vivo, 336 h, dose 50-2000 mg/kg, time 14 day
# [20] = Renal toxicity in Albino mouse assessed as change in distal convoluted tubules at 50 to 2000 mg/kg, po measured after 14 days; format: organism-based; settings: in vivo, 336 h, dose 50-2000 mg/kg, time 14 day
# [21] = Acute toxicity in Albino mouse assessed as change in serum creatine level at 50 to 2000 mg/kg, po measured after 14 days (reference value: 0.9 mg/dl); format: organism-based; settings: in vivo, 336 h, dose 50-2000 mg/kg, time 14 day
# [22] = Acute toxicity in Albino mouse assessed as change in total leucocyte count at 50 to 2000 mg/kg, po measured after 14 days (reference value: 7400 mm3); format: organism-based; settings: in vivo, 336 h, dose 50-2000 mg/kg, time 14 day
# [23] = Pulmonary toxicity in Albino mouse assessed as change in bronchi structure at 50 to 2000 mg/kg, po measured after 14 days; format: organism-based; settings: in vivo, 336 h, dose 50-2000 mg/kg, time 14 day
# [24] = Cytotoxicity against african green monkey Vero cells assessed as cell viability at 3.125 ug/ml by MTT assay; format: toxicity, cell-based; settings: chlorocebus sabaeus, at 3.125 µg/mL, read-out: Activity
# [25] = Acute toxicity in Albino mouse assessed as change in eosinophils at 50 to 2000 mg/kg, po measured after 14 days (reference value: 3%); format: organism-based; settings: in vivo, 336 h, dose 50-2000 mg/kg, time 14 day
# [26] = Pulmonary toxicity in Albino mouse assessed as appearance of goblet cells at 50 to 2000 mg/kg, po measured after 14 days; format: organism-based; settings: in vivo, 336 h, dose 50-2000 mg/kg, time 14 day
# [27] = Pulmonary toxicity in Albino mouse assessed as appearance of cilia at 50 to 2000 mg/kg, po measured after 14 days; format: organism-based; settings: in vivo, 336 h, dose 50-2000 mg/kg, time 14 day
# [28] = Renal toxicity in Albino mouse assessed as change in Bowman's capsule at 50 to 2000 mg/kg, po measured after 14 days; format: organism-based; settings: in vivo, 336 h, dose 50-2000 mg/kg, time 14 day
# [29] = Renal toxicity in Albino mouse assessed as change in renal corpuscles at 50 to 2000 mg/kg, po measured after 14 days; format: organism-based; settings: in vivo, 336 h, dose 50-2000 mg/kg, time 14 day
# [30] = Cytotoxicity against african green monkey Vero cells assessed as cell viability at 6.25 ug/ml by MTT assay; format: toxicity, cell-based; settings: chlorocebus sabaeus, at 6.25 µg/mL, read-out: Activity
# [31] = Hepatotoxicity in Albino mouse assessed as change in bile duct at 50 to 2000 mg/kg, po measured after 14 days; format: toxicity, organism-based, Liver; settings: in vivo, 336 h, dose 50-2000 mg/kg, time 14 day
# [32] = Acute toxicity in po dosed Albino mouse assessed as mortality after 14 days; format: organism-based; settings: in vivo, time 14 day
# [33] = Acute toxicity in Albino mouse assessed as mortality at 2000 mg/kg, po after 2 to 4 hrs; format: organism-based; settings: in vivo, time 2-4 hrs
# [34] = Renal toxicity in Albino mouse assessed as change in proximal convoluted tubules at 50 to 2000 mg/kg, po measured after 14 days; format: organism-based; settings: in vivo, 336 h, dose 50-2000 mg/kg, time 14 day
# [35] = Acute toxicity in Albino mouse assessed as change in SGPT count at 50 to 2000 mg/kg, po measured after 14 days (reference value: 52 IU/L); format: organism-based; settings: in vivo, 336 h, dose 50-2000 mg/kg, time 14 day
# [36] = Acute toxicity in Albino mouse assessed as mortality at 50 mg/kg, po after 14 days; format: organism-based; settings: in vivo, 336 h, time 14 day
# [37] = Cytotoxicity against african green monkey Vero cells assessed as cell viability at 50 ug/ml by MTT assay; format: toxicity, cell-based; settings: chlorocebus sabaeus, at 50 µg/mL, read-out: Activity
# [38] = Acute toxicity in Albino mouse assessed as change in hemoglobin level at 50 to 2000 mg/kg, po measured after 14 days (reference value: 12.8 g/dl); format: organism-based; settings: in vivo, 336 h, dose 50-2000 mg/kg, time 14 day
# [39] = Pulmonary toxicity in Albino mouse assessed as change in squamous pneumocytes at 50 to 2000 mg/kg, po measured after 14 days; format: organism-based; settings: in vivo, 336 h, dose 50-2000 mg/kg, time 14 day
# [40] = Acute toxicity in Albino mouse assessed as change in neutrophils at 50 to 2000 mg/kg, po measured after 14 days (reference value: 75%); format: organism-based; settings: in vivo, 336 h, dose 50-2000 mg/kg, time 14 day
# [41] = Hepatotoxicity in Albino mouse assessed as change in hepatocytes at 50 to 2000 mg/kg, po measured after 14 days; format: toxicity, organism-based; settings: in vivo, 336 h, dose 50-2000 mg/kg, time 14 day
# [42] = Hepatotoxicity in Albino mouse assessed as change in hepatic artery at 50 to 2000 mg/kg, po measured after 14 days; format: toxicity, organism-based, Liver; settings: in vivo, 336 h, dose 50-2000 mg/kg, time 14 day
# [43] = Renal toxicity in Albino mouse assessed as extravasation of RBC at 50 to 2000 mg/kg, po measured after 14 days; format: organism-based, Erythrocyte; settings: in vivo, 336 h, dose 50-2000 mg/kg, time 14 day
# [44] = Pulmonary toxicity in Albino mouse assessed as change in alveoli structure at 50 to 2000 mg/kg, po measured after 14 days; format: organism-based; settings: in vivo, 336 h, dose 50-2000 mg/kg, time 14 day
# [45] = Acute toxicity in Albino mouse assessed as change in ESR at 50 to 2000 mg/kg, po measured after 14 days (reference value: 10 millimeter); format: organism-based; settings: in vivo, 336 h, dose 50-2000 mg/kg, time 14 day
smiles,measurement,setting,value
NC1=C(Cl)C(=O)c2ccccc2C1=O,Activity,[1],68 mg/dL
same,Activity,[2],Non-Toxic
same,Activity,[3],4.53 10^6 cells/µL
same,MIC,[4],15.1 µM
same,Activity,[5],Non-Toxic
same,viability at 12.5 ug/ml,[6],31%
same,viability at 25 ug/ml,[7],18%
same,Activity,[8],Non-Toxic
same,Activity,[9],1519 IU/L
same,Activity,[10],34 IU/L
same,Activity,[11],Non-Toxic
same,Activity,[12],Non-Toxic
same,Activity,[13],Non-Toxic
same,viability at 100 ug/ml,[14],3.1%
same,Activity,[15],Non-Toxic
same,Activity,[16],36%
same,Activity,[17],40 IU/L
same,Activity,[18],Toxic
same,Activity,[19],1%
same,Activity,[20],Non-Toxic
same,Activity,[21],0.9 mg/dL
same,Activity,[22],3900 cells/mm3
same,Activity,[23],Non-Toxic
same,viability at 3.125 ug/ml,[24],60%
same,Activity,[25],5%
same,Activity,[26],Non-Toxic
same,Activity,[27],Non-Toxic
same,Activity,[28],Non-Toxic
same,Activity,[29],Non-Toxic
same,viability at 6.25 ug/ml,[30],55%
same,Activity,[31],Non-Toxic
same,LD50 at 336 h,[32],50 mg/kg
same,Activity,[33],Toxic
same,Activity,[34],Non-Toxic
same,Activity,[35],26 IU/L
same,Activity,[36],Non-Toxic
same,viability at 50 ug/ml,[37],9.3%
same,Activity,[38],13.6 g/dL
same,Activity,[39],Non-Toxic
same,Activity,[40],58%
same,Activity,[41],Non-Toxic
same,Activity,[42],Non-Toxic
same,Activity,[43],Non-Toxic
same,Activity,[44],Non-Toxic
same,Activity,[45],16 millimeter/hr
O=C1C(Cl)=C(/N=C/c2ccccc2)C(=O)c2ccccc21,MIC,[4],12.5 µg/mL
